This note sets out measurements from patent publication US4413007A, “Pesticidal symmetrical N-substituted bis-carbamoyloximino disulfide compounds” (priority 1978, dated 1983).

What all share (assay type): in vivo
Assay [1] has as its system house flies (Musca domestica, L.). Put plainly: Fly Bait Test. Also on record: key: A: excellent control; B: partial control; C: no control. Particulars: 500 ppm in sugar solution, twenty four hours. The procedure:
(§1) Suspensions of the test compounds were prepared by dissolving one gram of compound in 50 milliliters of acetone in which had been dissolved 0.1 gram (10 percent of the weight of compound) of an alkylphenoxy polyethoxyethanol surfactant, as an emulsifying or dispersing agent. The resulting solution was mixed into 150 milliliters of water to give roughly 200 milliliters of a suspension containing the compound in finely divided form. The thus-prepared stock suspension contained 0.5 percent by weight of compound. The test concentrations in parts per million by weight employed in the tests described hereinbelow were obtained by appropriate dilutions of the stock suspension with water. The test procedures were as follows:
Four to six day old adult house flies (Musca domestica, L.) reared according to the specifications of the Chemical Specialities Manufacturing Association (Blue Book, McNair-Dorland Co., N.Y. 1954; pages 243-244, 261) under controlled conditions of 80±5° F. and 50±5 percent relative humidity, were the test insects. The flies were immobilized by anesthetizing with carbon dioxide and twenty five immobilized individuals,males and females, were transferred to a cage consisting of a standard food strainer about five inches in diameter which was inverted over a wrapping-paper-covered surface. The test compounds were formulated by diluting the stock suspension with a 10 percent (by weight) sugar solution to give a suspension containing 500 parts of test compound per million parts of final formulation, by weight. Ten milliliters of the test formulation were added to a souffle cup containing a one-inch square of an absorbent cotton pad. This bait cup was introduced and centered on the blotting paper under the food strainer prior to admitting the anesthetized flies. The caged flies were allowed to feed on the bait for twenty four hours, at a temperature of 80±5° F. and the relative humidity of 50±5 percent.
(§2) In these tests the pesticidal activity of the compounds against aphid, mite, Southern Armyworm, Bean Beetle and house fly was rated as follows: […]

The subject of assay [2] is two-spotted mite (Tetranychus urticae Koch). The assay is described as follows: Mite Foliage Spray Test. Particulars: 500 ppm, six days. Also on record: key: A: excellent control; B: partial control; C: no control. As for the experimental part:
as §1
Adults and nymphal stages of the two-spotted mite (Tetranychus urticae Koch), reared on Tendergreen bean plants at 80±5 percent relative humidity, were the test organisms. Infested leaves from a stock culture were placed on the primary leaves of two bean plants six to eight inches in height, growing in a two-and-a-half inch clay pot. 150-200 Mites, a sufficient number for testing, transferred from the excised leaves to the fresh plants in a period of twenty four hours. Following the twenty four hour transfer period, the excised leaves were removed from the infested plants. The test compounds were formulated by diluting the stock suspension with water to give a suspension containing 500 parts of test compound per million parts of final formulation. The potted plants (one pot per compound) were placed on a revolving turntable and sprayed with 100-110 milliliters of test compound formulation by use of a DeVilbiss spray gun set at 40 psig. air pressure. This application, which lasted 25 seconds, was sufficient to wet the plants to run-off. As a control, 100-110 milliliters of a water solution containing acetone and emulsifier in the same concentrations as the test compound formulation, but containing no test compound, were also sprayed on infested plants. The sprayed plants were held at 80±5 percent relative humidity for six days, after which a mortality count of motile forms was made. Microscopic examination for motile forms was made on the leaves of the test plants. Any individual which was capable of locomotion upon prodding was considered living.
as §2

Assay [3] deals with Mexican bean beetle (Epilachna varivestis, Muls.). The assay is described as follows: Mexican Bean Beetle Leaf Spray Test. The following applies: 500 ppm, three days. Also on record: key: A: excellent control; B: partial control; C: no control. The procedure: as §1
Fourth instar larvae of the Mexican bean beetle (Epilachna varivestis, Muls.), reared on Tendergreen bean plants at a temperature of 80±5° F. and 50±5 percent relative humidity, were the test insects.
The test compounds were formulated by diluting the stock suspension with water to give a suspension containing 500 parts of test compound per million parts of final formulation. Potted Tendergreen bean plants of standard height and age were placed on a revolving turntable and sprayed with 100-110 milliliters of test compound formulation by use of a DeVilbiss spray gun set at 10 psig air pressure. The application, which lasted 25 seconds, was sufficient to wet plants to run-off. As a control, 100-110 milliliters of a water-acetone-emulsifier solution containing no test compound were also sprayed on infested plants. When dry, the paired leaves were separated and each was placed in a 9 centimeter Petri dish lined with moistened filter paper. Five randomly selected larvae were introduced into each dish, and the dishes were closed. The closed dishes were labeled and held at a temperature of 80±5° F. for three days. Although the larvae could easily consume the leaf within 24 to 48 hours, no more food was added. Larvae which were unable to move the length of the body, even upon stimulation, were considered dead.
as §2

Assay [4] relates to southern armyworm (Prodenia eridania, (Cram.)). Put plainly: Southern Armyworm Leaf Spray Test. On the set-up: key: A: excellent control; B: partial control; C: no control. The following applies: 500 ppm, three days. The procedure: as §1
Larvae of the southern armyworm (Prodenia eridania, (Cram.)), reared on Tendergreen bean plants at a temperature of 80±5° F. and a relative humidity of 50±5 percent, constituted the test insects.
The test compounds were formulated by diluting the stock suspension with water to give a suspension containing 500 parts of test compound per million parts of final formulation. Potted Tendergreen bean plants of standard height and age were placed on a revolving turntable and sprayed with 100-110 milliliters of test compound formulation by use of a DeVilbiss spray gun set at 10 psig air pressure. This application, which tested 25 seconds, was sufficient to wet plants to run-off. As a control, 100-110 milliliters of a water-acetone-emulsifier solution containing no test compound were also sprayed on infested plants. When dry, the paired leaves were separated and each one was placed in a 9 centimeter Petri dish lined with moistened filter paper. Five randomly selected larvae were introduced into each dish and the dishes were closed. The closed dishes were labeled and held at 80°-85° F. for three days. Although the larvae could easily consume the whole leaf within twenty-four hours, no more food was added. Larvae which were unable to move the length of the body, even upon stimulation by prodding, were considered dead. Percent mortality was recorded for various concentration levels.
as §2

For assay [5], the system named is root-knot nematode (Meloidogyne incognita var. acrita). The assay is described as follows: Nematode Test. On the set-up: key: 1: severe galling; equal to untreated control; 2: moderate galling; 3: light galling; 4: very light galling; 5: no galling. Particulars: 10 ml of 500 ppm formulation per jar (approx. 180 cc soil), cucumber indicator crop, approx. three weeks. The procedure:
as §1
Infective migratory larvae of the root-knot nematode, (Meloidogyne incognita var. acrita) were reared in the greenhouse on roots of Rutgers variety tomato plant. Infected tomato plants were removed from the culture and the roots were chopped very finely. A small amount of inoculum from the roots was added to pint Mason jars containing approximately 180 cc of soil. The jars containing the inoculum and soil were capped and incubated for one week at room temperature. During this period eggs of the nematode hatched and the larvae forms migrated into the soil.
The test compounds were formulated by diluting the stock suspension with water to give a suspension containing 500 parts of test compound per million parts of final formulation. 10 milliliters of the test formulation was added to each of two jars for each dosage treated. As a control 10 milliliters of a water-acetone-emulsifier solution containing no test compound was also added to jars containing nematode larvae. The jars were capped and the contents thoroughly mixed on a kale mill for five minutes. The jars remained capped at room temperature for a period of 48 hours and the contents were then transferred to 3 inch pots. Subsequently, the pots were seeded to cucumber as an indicator crop and placed in the green house where they were cared for in the normal fashion for growing potted cucumber for approximately three weeks. These cucumber plants were then removed from the pots, the soil washed from the roots and the amount of galling visually rated.
The nematocidal toxicity has the following ratings;

Assay [6] deals with bean aphid (Aphis fabae Scop.). The assay is described as follows: Bean Aphid Foliage Spray Test. On the set-up: key: A: excellent control; B: partial control; C: no control. Particulars: 500 ppm, 24 hour holding period. The procedure:
as §1
Adults and nymphal stages of the bean aphid (Aphis fabae Scop.) reared on potted dwarf nasturtium plants at 65°-70° F. and 50-70 percent relative humidity, constituted the test insects. For testing purposes, the number of aphids per pot was standardized to 100-150 by trimming plants containing excess aphids.
The test compounds were formulated by diluting the stock suspension with water to give a suspension containing 500 parts of test compound per million parts of final formulation.
The potted plants (one pot per compound tested) infested with 100-150 aphids, were placed on a revolving turntable and sprayed with 100-110 milliliters of test compound formulation by use of a DeVilbiss spray gun set at 40 psig. air pressure. This application, which tested 25 seconds, was sufficient to wet the plants to run-off. As a control, 100-110 milliliters of a water-acetone-emulsifier solution containing no test compound were also sprayed on infested plants. After spraying, the pots were placed on their sides on a sheet of white standard mimeograph paper which had been previously ruled to facilitate counting. Temperature and humidity in the test room during the 24 hour holding period were 65°-70° F. and 50-70 percent, respectively. Aphids which fell onto the paper and were unable to remain standing after being uprighted were considered dead. Aphids remaining on the plants were observed closely for movement and those which were unable to move the length of the body upon stimulation by prodding were considered dead. Percent mortality was recorded for various concentration levels.
as §2

In the case of `CC(=NOC(=O)N(C)SSN(C)C(=O)ON=C(C)[S+](C)[O-])[S+](C)[O-]` (stereo not shown) [N,N'--Bis-[1-Methylsulfinylacetaldehyde O--(N--methylcarbamoyl)oxime] disulfide], in assay [1], the House-Fly control rating entry was “A”. Further, in assay [2], the “2-Spotted Mite control rating” value was “C”. Also, in assay [3], the “Mexican Bean Beetle control rating” value is on record as “A”. In addition, the “Southern Armyworm control rating” value in assay [4] is listed as “B”. Moreover, in assay [5], the “Root-Knot Nematode galling rating” value came to 1. In addition, the “Bean Aphid control rating” value in assay [6] was “C”.
As for `CN=C1SC(=NOC(=O)N(C)SSN(C)C(=O)ON=C2SC(=NC)SC2(C)C)C(C)(C)S1` [N,N'--Bis-[2-Methylimino-4,4-dimethyl-5-(O--(N--methyl-carbamoyl)oximino-1,3-dithiolane]disulfide], the House-Fly control rating result in assay [1] is “A”. Further, the “2-Spotted Mite control rating” value in assay [2] is reported as “B”. Besides, the “Mexican Bean Beetle control rating” value in assay [3] was “A”. Besides, the “Southern Armyworm control rating” value in assay [4] is recorded as “A”. In addition, in assay [5], the “Root-Knot Nematode galling rating” value amounted to 4. The “Bean Aphid control rating” value in assay [6] is given as “A”.
In the case of `CC(C)N1C(=O)C(C)(C)SC1=NOC(=O)N(C)SSN(C)C(=O)ON=C1SC(C)(C)C(=O)N1C(C)C` [N,N'--Bis-[3-Isopropyl-5,5-dimethyl-2-(O--(N--methylcarbamoyl)oximino)-1,3-thiazolidin-4-one] disulfide], the House-Fly control rating entry in assay [1] is “C”. In assay [2], the “2-Spotted Mite control rating” value was “C”. For the same compound, the “Mexican Bean Beetle control rating” value in assay [3] is “A”. In assay [4], the “Southern Armyworm control rating” value is given as “B”. In assay [6], the “Bean Aphid control rating” value is reported as “A”.
Regarding `CC(=NOC(=O)N(C)SSN(C)C(=O)ON=C(C)SC(C)C)SC(C)C` [N,N'-Bis-[1-Isopropylthioacetaldehyde O-(N-methylcarbamoyl)oxime]disulfide], the House-Fly control rating result in assay [1] is “A”. Further, the “2-Spotted Mite control rating” value in assay [2] is reported as “A”. In assay [3], the “Mexican Bean Beetle control rating” value is listed as “A”. Moreover, in assay [4], the “Southern Armyworm control rating” value is reported as “A”. The “Root-Knot Nematode galling rating” value in assay [5] was determined as 4. In addition, the “Bean Aphid control rating” value in assay [6] is reported as “A”.
In the case of `CN(SSN(C)C(=O)ON=CC(C)(C)S(C)(=O)=O)C(=O)ON=CC(C)(C)S(C)(=O)=O` [N,N'-Bis-[2-Methylsulfonyl-2-methylpropionaldehyde O-(N-methylcarbamoyl)oxime]disulfide], the House-Fly control rating result in assay [1] is given as “A”. In assay [2], the “2-Spotted Mite control rating” value is given as “B”. Further, the “Mexican Bean Beetle control rating” value in assay [3] is “C”. For the same compound, the “Southern Armyworm control rating” value in assay [4] is listed as “C”. The “Root-Knot Nematode galling rating” value in assay [5] is 4. In addition, the “Bean Aphid control rating” value in assay [6] was “C”.
Consider `CN(SSN(C)C(=O)ON=C1SCCS1)C(=O)ON=C1SCCS1` [N,N'-bis-[2-(O-(N-Methylcarbamoyl)oximino)-1,3-dithiolane]disulfide], for which, in assay [1], the House-Fly control rating result was “A”. In assay [2], the “2-Spotted Mite control rating” value is reported as “C”. Further, the “Mexican Bean Beetle control rating” value in assay [3] is “A”. Further, the “Southern Armyworm control rating” value in assay [4] is listed as “A”. Further, the “Root-Knot Nematode galling rating” value in assay [5] came to 5. For the same compound, in assay [6], the “Bean Aphid control rating” value is “A”.
Turning to `CN(SSN(C)C(=O)ON=CC(C)(C)C#N)C(=O)ON=CC(C)(C)C#N` [N,N'-bis-[2-Cyano-2-methylpropionaldehyde O-(N-methylcarbamoyl)oxime]disulfide], the House-Fly control rating result in assay [1] is reported as “A”. Besides, the “2-Spotted Mite control rating” value in assay [2] is given as “A”. In addition, in assay [3], the “Mexican Bean Beetle control rating” value is given as “A”. In addition, the “Southern Armyworm control rating” value in assay [4] was “A”. Also, in assay [5], the “Root-Knot Nematode galling rating” value is listed as 4. In addition, in assay [6], the “Bean Aphid control rating” value is recorded as “A”.
Regarding `CN1CCSC(=NOC(=O)N(C)SSN(C)C(=O)ON=C2SCCN(C)C2=O)C1=O` [N,N'-bis-[4-Methyl-2-(O-(N-methylcarbamoyl)oximino)tetrahydro-1,4-thiazin-3-one]disulfide], the House-Fly control rating entry in assay [1] is reported as “A”. In addition, the “2-Spotted Mite control rating” value in assay [2] is “A”. In addition, in assay [3], the “Mexican Bean Beetle control rating” value is given as “A”. For the same compound, in assay [4], the “Southern Armyworm control rating” value is “A”. In assay [6], the “Bean Aphid control rating” value was “A”.
